Test results taken from patent EP1247803A2, “Indolinone compounds suitable for modulation of protein kinases” (Sugen, Inc., priority 1996, dated 1998).

Key:
MET = MET biochemical kinase assay; set-up: species or system human; concentration or dose not given beside the values
Text: A met biochemical kinase assay may be performed for met generally as described above for other kinases by substituting that or the other kinases. In particular, ELISA plates are coated with goat anti-rabbit Fc antibodies, which are used to capture commercially available (from Santa Cruz Biotechnology) rabbit polyclonal antibodies to the cytoplasmic domain of human MET. […] The chimeric receptors, or MET, from these lysates are captured on the antibody coated plates. After washing away extraneous proteins, test compounds are added and an in vitro kinase assay is performed by addition of an appropriate kinase buffer (containing ATP, divalent metal ions, etc.). Incorporation of phosphate into the captured receptors is detected with an anti-phosphotyrosine antibody conjugate with horse radish peroxidase using TMB as a substrate for colorimetric detection.

FLK-1 receptor = molecular target: T1, FLK-1 receptor (Mus musculus, UniProt P35918); test: FLK-1 ELISA (kinase activity of the FLK-1 receptor in FLK-1/NIH3T3 cells, VEGF stimulated); format: cell-based
T1 construct: expressed in transfected cells; host or cells: NIH3T3 C7#3
Procedure: An enzyme linked immunosorbent assay (ELISA) was conducted to measure the catalytic activity of the FLK-1 receptor and more specifically, the inhibition or activation of indolinone compounds on the catalytic activity of the FLK-1 receptor. Specifically, the following assay was conducted to measure catalytic activity of the FLK-1 receptor in FLK-1/NIH3T3 cells.
The materials and protocol for the FLK-1 ELISA assay are as described in International Patent Publication No. WO 96/40116, published December 19, 1996 by Tang et al.
Selected compounds were tested in the FLK-1 ELISA assay.
An ELISA assay was conducted to measure the kinase activity of the FLK-1 receptor and more specifically, the inhibition or activation of protein tyrosine kinase activity on the FLK-1 receptor. Specifically, the following assay was conducted to measure kinase activity of the FLK-1 receptor in FLK-1/NIH3T3 cells.
Materials. The following reagents and supplies were used: • a. […] Cappel goat anti-rabbit IgG (catalog no. 55641); • c. PBS (Gibco Catalog No. 450-1300EB); • d. TBSW Buffer (50 mM Tris (pH 7.2), 150 mM NaCl and 0.1% Tween-20); • e. Ethanolamine stock (10% ethanolamine (pH 7.0), stored at 4°C); • f. HNTG buffer (20mM HEPES buffer (pH 7.5), 150mM NaCl, 0.2% Triton X-100, and 10% glycerol); • g. EDTA (0.5 M (pH 7.0) as a 100X stock); • h. Sodium ortho vanadate (0.5 M as a 100X stock); • i. Sodium pyro phosphate (0.2M as a 100X stock); • j. NUNC 96 well V bottom polypropylene plates (Applied Scientific Catalog No. AS-72092); • k. NIH3T3 C7#3 Cells (FLK-1 expressing cells); • l. DMEM with 1X high glucose L Glutamine (catalog No. 11965-050); • m. FBS, Gibco (catalog no. 16000-028); • n. L-glutamine, Gibco (catalog no. 25030-016); • o. VEGF, PeproTech, Inc. (catalog no. 100-20)(kept as 1 µg/100 µl stock in Milli-Q dH2O and stored at -20°C; • p. Affinity purified anti-FLK-1 antiserum which can be obtained or purified as follows: • 1. Prepare a Tresyl-Activated Agarose/Flk-1-D column by incubating 10 ml of Tresyl-Activated Agarose with 20 mg of purified GST-Flk-1-D fusion protein in 100mM sodium bicarbonate (pH 9.6) buffer overnight at 4 °C. • 2. Wash the column once with PBS. • 3. Block the excess sites on the column with 2 M glycine for 2 hours at 4°C. • 4. Wash the column with PBS. • 5. Incubate the column with Rabbit anti-Flk-1D production bleed for 2 hours at 4 °C. • 6. Wash the column with PBS. • 7. Elute antiserum with 100 mM Citric Acid, pH3.0 and neutralize the eluate immediately with 2 M Tris, pH 9.0. • 8. Dialyize the eluate against PBS overnight at 4 °C with 3 changes of buffer (sample to buffer ratio is 1:100). • 9. Adjust the dialyized antiserum to 5% glycerol and store at -80 °C in small aliquotes. • q.
Protocol. The following protocol was used for conducting the assay: • 1. Coat Corning 96-well elisa plates with 1.0µg per well Cappel Anti-rabbit IgG antibody in 0.1M Na2CO3 pH 9.6. Bring final volume to 150 µl per well. Coat plates overnight at 4°C. Plates can be kept up to two weeks when stored at 4°C. • 2. Grow cells in Growth media(DMEM, supplemental with 2.0mM L-Glutamine, 10% FBS) in suitable culture dishes until confluent at 37°C, 5% CO2. • 3. Harvest cells by trypsinization and seed in Corning 25850 polystyrene 96-well roundbottom cell plates, 25.000 cells/well in 200µl of growth media. • 4. Grow cells at least one day at 37°C, 5% CO2. • 5. Wash cells with D-PBS 1X. • 6. Add 200µl/well of starvation media (DMEM, 2.0mM 1-Glutamine, 0.1% FBS). Incubate overnight at 37°C, 5% CO2. • 7. Dilute Compounds/Extracts 1:20 in polypropylene 96 well plates using starvation media. Dilute dimethylsulfoxide 1:20 for use in control wells. • 8. Remove starvation media from 96 well cell culture plates and add 162 µl of fresh starvation media to each well. • 9. Add 18µl of 1:20 diluted Compound/Extract dilution (from step 7) to each well plus the 1:20 dimethylsulfoxide dilution to the control wells (+/- VEGF), for a final dilution of 1:200 after cell stimulation. […]

T1 sequence (P35918 20-1345): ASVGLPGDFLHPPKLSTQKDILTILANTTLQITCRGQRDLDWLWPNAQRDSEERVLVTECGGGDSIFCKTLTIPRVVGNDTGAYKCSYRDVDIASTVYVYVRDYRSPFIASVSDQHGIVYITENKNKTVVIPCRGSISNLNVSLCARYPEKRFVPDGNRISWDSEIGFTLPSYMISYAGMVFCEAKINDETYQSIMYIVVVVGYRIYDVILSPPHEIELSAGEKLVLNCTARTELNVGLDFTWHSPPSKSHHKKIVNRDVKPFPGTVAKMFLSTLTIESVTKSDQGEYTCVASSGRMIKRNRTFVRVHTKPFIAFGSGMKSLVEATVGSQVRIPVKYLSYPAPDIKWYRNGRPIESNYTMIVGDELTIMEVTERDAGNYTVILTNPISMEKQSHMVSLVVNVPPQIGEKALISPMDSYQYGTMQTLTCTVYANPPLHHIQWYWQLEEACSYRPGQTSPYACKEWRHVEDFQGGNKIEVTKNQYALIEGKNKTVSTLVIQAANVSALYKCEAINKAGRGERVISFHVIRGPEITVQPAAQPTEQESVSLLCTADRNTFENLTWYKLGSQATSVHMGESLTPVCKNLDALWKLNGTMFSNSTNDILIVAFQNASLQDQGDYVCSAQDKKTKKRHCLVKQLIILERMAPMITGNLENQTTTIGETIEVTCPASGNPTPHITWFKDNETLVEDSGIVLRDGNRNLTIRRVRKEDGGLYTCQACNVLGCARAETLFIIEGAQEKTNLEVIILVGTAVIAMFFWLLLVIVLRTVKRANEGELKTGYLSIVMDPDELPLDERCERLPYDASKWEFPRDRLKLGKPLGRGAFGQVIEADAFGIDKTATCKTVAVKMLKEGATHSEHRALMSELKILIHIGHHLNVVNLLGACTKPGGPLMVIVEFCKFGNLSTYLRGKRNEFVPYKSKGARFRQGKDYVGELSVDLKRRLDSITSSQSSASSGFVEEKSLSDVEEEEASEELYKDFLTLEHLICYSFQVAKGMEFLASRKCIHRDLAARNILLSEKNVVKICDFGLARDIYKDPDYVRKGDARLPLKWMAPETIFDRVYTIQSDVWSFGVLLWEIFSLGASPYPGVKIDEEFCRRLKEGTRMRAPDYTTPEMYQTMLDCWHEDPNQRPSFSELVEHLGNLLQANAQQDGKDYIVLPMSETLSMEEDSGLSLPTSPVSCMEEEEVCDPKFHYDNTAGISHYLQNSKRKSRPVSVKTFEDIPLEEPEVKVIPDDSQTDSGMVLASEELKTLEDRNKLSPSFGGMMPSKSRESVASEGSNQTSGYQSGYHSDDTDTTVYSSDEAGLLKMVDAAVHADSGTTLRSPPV

| SMILES | Met Kinase % Inhibition (MET) [%] | Fik Kinase %Inhibition (FLK-1 receptor) [%] |
| --- | --- | --- |
| Cc1c(Br)ccc2c1C(=Cc1ccco1)C(=O)N2 [10718/C10] | 4.4 | -11.9 |
| Cc1c(Br)ccc2c1C(=Cc1ccc([N+](=O)[O-])o1)C(=O)N2 [10718/C11] | 10.1 | 11.4 |
| CCOC(=O)c1c(C)[nH]c(C=C2C(=O)Nc3ccc(S(=O)(=O)NC)cc32)c1C [10718/D02] | 32.0 | 13.3 |
| CNS(=O)(=O)c1ccc2c(c1)C(=Cc1cc(OC)cc(Br)c1O)C(=O)N2 [10718/D03] | 92.9 | 1.1 |
| CNS(=O)(=O)c1ccc2c(c1)C(=Cc1ccc3ccccc3c1O)C(=O)N2 [10718/D04] | 92.9 | 6.4 |
| CCOC(=O)CCc1c(C(=O)OCC)[nH]c(C=C2C(=O)Nc3ccc(S(=O)(=O)NC)cc32)c1CC(=O)OCC [10718/D05] | 10.6 | 11.5 |
| CCOC(=O)c1cc(C=C2C(=O)Nc3ccc(S(=O)(=O)NC)cc32)oc1C [10718/D06] | 11.1 | 15.8 |
| C=C(C)C1CC=C(C=C2C(=O)Nc3ccc(S(=O)(=O)NC)cc32)CC1 (stereo not shown) [10731/D04] | 24.5 | 9.3 |
| CNS(=O)(=O)c1ccc2c(c1)C(=Cc1coc3ccc(C(C)C)cc3c1=O)C(=O)N2 [10731/D05] | 92.7 | 32.7 |
| CNS(=O)(=O)c1ccc2c(c1)C(=Cc1coc3ccc(C)cc3c1=O)C(=O)N2 [10731/D06] | 59.7 | 16.1 |
| CNS(=O)(=O)c1ccc2c(c1)C(=Cc1coc3ccc([N+](=O)[O-])cc3c1=O)C(=O)N2 [10731/D07] | 45.9 | 12.3 |
| CNS(=O)(=O)c1ccc2c(c1)C(=Cc1c[nH]c(=O)[nH]c1=O)C(=O)N2 [10731/D08] | 44.2 | 25.8 |
| CNS(=O)(=O)c1ccc2c(c1)C(=Cc1c[nH]c3ccc(OC)cc13)C(=O)N2 [10731/D09] | 23.9 | 6.1 |
| CNS(=O)(=O)c1ccc2c(c1)C(=C1C(=O)N(C)c3ccccc31)C(=O)N2 [10731/D10] | 21.1 | 13.0 |
| CCn1c2ccccc2c2cc(C=C3C(=O)Nc4ccc(S(=O)(=O)Nc5ccc(C(F)(F)F)cc5)cc43)ccc21 [10731/E02] | 49.1 | 11.2 |
| Cc1cc2occ(C=C3C(=O)Nc4ccc(S(=O)(=O)Nc5ccc(C(F)(F)F)cc5)cc43)c(=O)c2cc1C [10731/E03] | 20.7 | -1.4 |
| C=C(C)C1CC=C(C=C2C(=O)Nc3ccc(S(=O)(=O)Nc4ccc(C(F)(F)F)cc4)cc32)CC1 (stereo not shown) [10731/E04] | 55.6 | 23.8 |
| CC(C)c1ccc2occ(C=C3C(=O)Nc4ccc(S(=O)(=O)Nc5ccc(C(F)(F)F)cc5)cc43)c(=O)c2c1 [10731/E05] | 82.2 | 7.0 |
| Cc1ccc2occ(C=C3C(=O)Nc4ccc(S(=O)(=O)Nc5ccc(C(F)(F)F)cc5)cc43)c(=O)c2c1 [10731/E06] | 37.7 | 2.6 |
| O=C1Nc2ccc(S(=O)(=O)Nc3ccc(C(F)(F)F)cc3)cc2C1=Cc1coc2ccc([N+](=O)[O-])cc2c1=O [10731/E07] | 45.9 | 12.6 |
